Source: paper PMC8653067 (ChemMedChem, 2021)
“Also recorded” adds a separate entry of the source. Where two headings read alike, the source gives them in different places.

Legend:
PLpro from SARS-CoV-2 [1] = target: T1, PLpro from SARS-CoV-2 (Severe acute respiratory syndrome coronavirus 2, UniProt P0DTD1); assay type: biochemical; conditions: for IC50: read-out: IC50 (µM) determined using Z-LRGG-AMC as a PLpro substrate
PLpro from SARS-CoV-2 [2] = target: T1, PLpro from SARS-CoV-2; assay type: biochemical; conditions: for Extent of PLpro inhibition in IC50 assay (in words): 5 μM Ub-AMC substrate; for IC50: read-out: IC50 (µM) determined using Ub-AMC as a PLpro substrate, 20 nM PLpro, 5 μM Ub-AMC, triplicates
PLpro from SARS-CoV-2 [3] = target: T1, PLpro from SARS-CoV-2; assay type: biochemical
[4] = target: ubiquitin C-terminal hydrolase L3; conditions: read-out: reported IC50 for ubiquitin C-terminal hydrolase L3; cited from earlier work
[5] = 20 nM PLpro, 50 μM Z-LRGG-AMC, triplicates
[6] = 200 μM inhibitor, 20 nM PLpro, 50 μM Z-LRGG-AMC
[7] = Z-LRGG-AMC substrate, highest tested concentration 200 μM

| Molecule | IC50 (PLpro from SARS-CoV-2 [1]; [5]) [µM] | PLpro inhibition in initial screening (PLpro from SARS-CoV-2 [3]; [6]) | other results |
| --- | --- | --- | --- |
| N#Cc1nc2c(nc1C#N)-c1ccccc1/C2=N\OCc1ccccc1 [DUB-IN-1] | > 100 | – | – |
| CCO/N=C1\c2ccccc2-c2nc(C#N)c(C#N)nc21 [DUB-IN-2] | – | – | IC50 (PLpro from SARS-CoV-2 [1]): > 100 µM |
| C=CCO/N=C1\c2ccccc2-c2nc(C#N)c(C#N)nc21 [DUB-IN-3] | – | – | Extent of PLpro inhibition in IC50 characterization (in words) (PLpro from SARS-CoV-2 [1]): only partial inhibition of PLpro; Extent of PLpro inhibition in IC50 assay (in words) (PLpro from SARS-CoV-2 [2]): simple inhibition curve that did not reach its plateau at the highest inhibitor concentration; IC50 (PLpro from SARS-CoV-2 [2]): > 10 µM |
| CC(=O)O/N=C1\C(=O)N(Cc2cc(Cl)ccc2Cl)c2ccc(Cl)cc21 [LDN-57444] | > 100 | inhibited PLpro partially but at significant levels | – |
| Cc1ccc(S(=O)(=O)Nc2cc(C(F)(F)F)ccc2C(=O)Nc2nc(-c3ccccc3)cs2)cc1 [ML364] | – | significant quenching effects leading to negative signals | Extent of PLpro inhibition in IC50 characterization (in words) (PLpro from SARS-CoV-2 [1]; [7]): did not show strong concentration-dependent inhibition of PLpro |
| Cc1ccc(/C=C2\CNC/C(=C\c3ccc(C)cc3)C2=O)cc1 [NSC63283] | > 100 | – | – |
| CC(=O)c1cc([N+](=O)[O-])c(Sc2cccc(Cl)c2Cl)s1 [P005091] | > 100 | inhibited PLpro partially but at significant levels | – |
| CC(=O)c1cc([N+](=O)[O-])c(Sc2ccc(F)cc2F)s1 [P22077] | > 100 | inhibited PLpro partially but at significant levels | – |
| N#CSc1cc(SC#N)c(N)nc1N [PR-619] | – | significant quenching effects leading to negative signals | Extent of PLpro inhibition in IC50 characterization (in words) (PLpro from SARS-CoV-2 [1]; [7]): strongly inhibited PLpro at concentrations above 1 μM; also recorded: can fully inhibit PLpro at 200 µM; IC50 (PLpro from SARS-CoV-2 [2]): 12.9 ± 2.4 µM |
| O=C1c2ccccc2C(=O)c2oc(-c3ccccc3)nc21 [SJB2–043] | – | inhibited PLpro partially but at significant levels | Extent of PLpro inhibition in IC50 characterization (in words) (PLpro from SARS-CoV-2 [1]; [7]): only partial inhibition of PLpro; Extent of PLpro inhibition in IC50 characterization (in words) (PLpro from SARS-CoV-2 [1]; Z-LRGG-AMC substrate, highest tested concentration 200 μM, listed as SBJ2–043): can only partially inhibit PLpro; Extent of PLpro inhibition in IC50 assay (in words) (PLpro from SARS-CoV-2 [2]): did not inhibit PLpro completely; IC50 (PLpro from SARS-CoV-2 [2]): 0.091 ± 0.024 µM |
| O=C1c2ccccc2C(=O)c2oc(-c3cccnc3)nc21 [SJB3–019A] | 8.15 ± 3.59 | inhibited PLpro partially but at significant levels | Extent of PLpro inhibition in IC50 characterization (in words) (PLpro from SARS-CoV-2 [1]; [7]): only partial inhibition of PLpro |
| O=C1CC(=O)c2c(Cl)c(Cl)c(Cl)c(Cl)c21 [TCID] | – | – | Extent of PLpro inhibition in IC50 characterization (in words) (PLpro from SARS-CoV-2 [1]): can fully inhibit PLpro at 200 µM; IC50 (PLpro from SARS-CoV-2 [2]): 10.5 ± 2.7 µM; PLpro inhibition in initial screening (PLpro from SARS-CoV-2 [3]): inhibited PLpro activity almost completely; IC50 [4]: 0.6 µM |
| C=CC(=O)N1CC/C(=C\c2ccc(F)c([N+](=O)[O-])c2)C(=O)/C(=C/c2ccc(F)c([N+](=O)[O-])c2)C1 [VLX1570] | > 100 | – | – |
| HBX19818 | > 100 | inhibited PLpro partially but at significant levels | – |
